Laboratory results from US20130029964A1, “[5, 6] HETEROCYCLIC COMPOUND” (DAIICHI SANKYO COMPANY, LIMITED, priority 2010, published 2013).

System: ST2 cells, murine bone marrow-derived stromal cells
Assay: Osteoblast differentiation test (ALP activity)
Format: cell-based
Conditions: Mus musculus, ST-2, 96 h, at 0.1 μg/mL, control group (0.1% DMSO) = 100%, four days of culturing, read-out: alkaline phosphatase activity
Protocol: ST2 cells, murine bone marrow-derived stromal cells, (obtained from RIKEN) were used.
In this test, α-MEM media (obtained from GIBCO BRL Cat. No. 10370-021) containing 10% (v/v) of inactivated calf serum (obtained from Hyclone Laboratories, Inc.) and 1% (v/v) of Penicillin-Streptomycin Liquid (obtained from GIBCO BRL Cat. No. 15140-122) (hereinbelow, abbreviated as 10%-FBS-αMEM) were used. In this test, all culturing was performed in a CO2 incubator (37° C., 95% humidity, 5% CO2).
The aforementioned cells were detached with 2 mL of a 0.25% trypsin solution (obtained from GIBCO BRL Cat. No. 15050-065) and dispersed in 10 mL of 10%-FBS-αMEM. Subsequently, the cells were collected by centrifugation (25° C., 800 rpm, five minutes). Then, a cell suspension containing 40000 of the cells/mL of 10%-FBS-αMEM was prepared. The cell suspension was then dispensed into 96-well plates (the product of Falcon), 100 μL per well, at a density of 4000 cells/well, followed by culturing for 24 hours. To the wells, except for the below-described well containing a control group, the compound was dispensed at final concentrations of 0.01, 0.03, 0.1, and 0.3 μg/ml. To the well of a control group, DMSO was dispensed at a final concentration of 0.1% (v/v). After four days of culturing, the activity of alkaline phosphatase (ALP) was measured in each group.
The measurement of ALP activity was performed as follows. That is, the medium in each well of the culture plates was completely removed. Each well was then washed by dispensing 100 μL of Dulbecco's phosphate buffer (obtained from GIBCO BRL Cat. No. 14190-144) and then removing it. A cell lysate solution containing 10 mM MgCl2 and 2% (v/v) TritonX-100 (Sigma) was prepared and dispensed at 50 μL/well, followed by stirring at room temperature for five minutes. An ALP substrate solution containing 50 mM diethanolamine (Wako Pure Chemical Industries, Ltd., Cat. No. 099-03112) and 20 mM p-nitrophenyl phosphate (Wako Pure Chemical Industries, Ltd., Cat. No. 147-02343) was prepared and dispensed at 50 μL/well, and the plates were left to stand at room temperature for 10 minutes. Subsequently, absorbance was measured by a microplate reader (Bio-Rad Laboratories, Inc.). Setting the measurement value of the control group of each plate at 100%, alkaline phosphatase activity (increase (%)) in the test compound-addition group was calculated, which was assessed as the degree of osteoblast differentiation.

Row | Structure (SMILES) | activity at 0.1 µg/mL
1 | O=C(C1CC1)N1CCC(OCCOC2CCN(c3cnc4ccc(Cl)cn34)CC2)CC1 [Example 138] | ≥ 200%
2 | Clc1ccn2c(N3CCC(OCCOC4CCOCC4)CC3)cnc2c1 [Example 139] | ≥ 200%
3 | O=C(C1CC1)N1CCC(OCCOC2CCN(c3cnc4ccc(-c5ccncc5)cn34)CC2)CC1 [Example 140] | ≥ 200%
4 | c1cc(-c2ccc3ncc(-c4ccc(OCCOC5CCOCC5)cc4)n3c2)ccn1 [Example 141] | ≥ 200%
5 | c1cc(-c2ccc3ncc(-c4ccc(NCCOC5CCOCC5)cc4)n3c2)ccn1 [Example 142] | ≥ 200%
6 | c1ccn2ncc(-c3ccc(NCCOC4CCOCC4)cc3)c2c1 [Example 143] | ≥ 200%
7 | Fc1ccc2ncc(-c3ccc(OCCOC4CCOCC4)cc3)n2c1 [Example 144] | ≥ 200%
8 | Cc1ccc2ncc(-c3ccc(OCCOC4CCOCC4)cc3)n2c1 [Example 145] | ≥ 200%
9 | O=C(c1ccc(-c2ccc3c(-c4ccc(OCCO)cc4)cnn3c2)nc1)N1CCOCC1 [Example 146] | ≥ 200%
10 | c1ccn2ncc(-c3ccc(OCCOC4CCOCC4)cc3)c2c1 [Example 147] | ≥ 200%
11 | N#Cc1ccc2ncc(-c3ccc(OCCOC4CCOCC4)cc3)n2c1 [Example 148] | ≥ 200%
12 | c1coc(-c2ccc3ncc(-c4ccc(OCCOC5CCOCC5)cc4)n3c2)n1 [Example 150] | ≥ 200%
